Publication PMC3549755, “A comparison of the ability of rilpivirine (TMC278) and selected analogues to inhibit clinically relevant HIV-1 reverse transcriptase mutants” (Retrovirology, 2012)
Where two headings read alike, the source gives them in different places.

Legend:
[1] = tested on: viral vectors that replicate using WT HIV reverse transcriptase; assay: single-round infectivity assay, luciferase reporter, vector with WT RT; type: cell-based, HIV-1; settings: SD in parentheses
Excerpt: (§1) We examined the effects of rilpivirine and the analogues on HIV-1 replication using a previously described assay and report the concentrations at which luciferase reporter activity was reduced by half relative to uninhibited controls (EC50) with standard deviations in parentheses. In the assay, viral vectors that replicate using WT HIV reverse transcriptase or one of several mutants (L100I, K103N, V106A, E138K, Y181C, Y188L, H221Y and the double mutant K103N/Y181C) were used to infect cells in a single round assay. These mutants were chosen either because they are known NNRTI resistance mutations (L100I, K103N, Y181C, and the K103N/Y181C double mutant), they were selected in patients in rilpivirine clinical trials (E138K and H221Y), or they are positioned to make significant Van der Waals contacts with rilpivirine (V106A and Y188L). All compounds were initially screened against a panel that included at least one RT mutant from all three groups (WT, K103N, E138K, Y181C and Y188L). The cytotoxicity of the compounds was also determined to establish the therapeutic index of each of the compounds.
(§2) Procedures for virion production and cell-based assay have been reported. Briefly, all cell cultures were maintained in Dulbecco’s modified Eagle’s medium (Invitrogen, Carlsbad, CA) with 5% (v/v) fetal bovine serum, 5% newborn calf serum, penicillin (50 units/mL) and streptomycin (50 μg/mL) (Quality Biological, Gaithersburg, MD). […]. Transfected cells were incubated at 37°C for 8 hrs, washed twice with PBS, fresh media was added and the cells were returned to the incubator for 48 hrs. The pNLNgoMIVR^+ΔEnv.LUC plasmid encodes the HIV-1 genome with an Env deletion and either WT HIV-1 RT, or one of the following mutants: L100I, K103N, V106A, E138K, Y181C, Y188L, H221Y, or K103N/Y181C. Supernatants from each plate were clarified by low-speed centrifugation (3,000xg for 20 min), then treated with 200 U DNase I (Roche Applied Science, Mannheim, Germany) at room temperature for 3 hours. Viral supernatants were stored at −20°C until used.
(§3) One day prior to infection, 100 μL of human osteosarcoma (HOS) cells were added to each well of a 96-well plate at a density of 4x10^4 cells/mL. Plates were incubated overnight at 37°C. On the day of infection, 10X drug stocks were prepared by serial dilution in media from an initial 10 mM stock solution in DMSO. Cells in the 96-well plate were pre-treated by the addition of 22 μL of the appropriate drug stock and returned to the incubator for 3 hours. Thawed virus stocks were diluted 1:2 in media, then 100 μL of virus was added to the pre-treated cells, bringing the final drug concentrations to 0.1 nM to 100 nM, with DMSO-treated cells (no drug) serving as a reference. In addition, 12 wells of cells treated with media and no virus served as negative controls. Plates were returned to the incubator for an additional 42 hours, at which time the luciferase activity was determined using Steady-Lite Plus kits (PerkinElmer, Waltham, MA). Background luciferase activity, as measured for the negative controls, was subtracted from the activities measured for each infected well. Drug-free, DMSO-treated wells were normalized to 100% infectivity. Infectivity at each drug concentration was determined as a percentage of these drug-free infections. Drug concentration versus percent infectivity was plotted for each RT-inhibitor combination, and the data were fit to a four-parameter sigmoidal curve using KaleidaGraph 4.0 (Synergy Software, Reading, PA). The inflection point of each curve is reported as the IC50. All values are the mean of triplicate infections.

[2] = tested on: viral vector with K103N mutant HIV-1 RT; assay: single-round infectivity assay, luciferase reporter, K103N RT vector; type: cell-based; settings: Human immunodeficiency virus 1; HOS cells, reduction of luciferase reporter activity, SD in parentheses
Excerpt: as §1, §2, §3

[3] = tested on: viral vector with E138K mutant HIV-1 RT; assay: single-round infectivity assay, luciferase reporter, E138K RT vector; type: cell-based; settings: for EC50: Human immunodeficiency virus 1, HOS cells, reduction of luciferase reporter activity, SD in parentheses; for loss of potency against E138K: compared with rilpivirine (1)
Excerpt: as §1, §2, §3

[4] = tested on: viral vector with Y181C mutant HIV-1 RT; assay: single-round infectivity assay, luciferase reporter, Y181C RT vector; type: cell-based; settings: Human immunodeficiency virus 1; HOS cells, reduction of luciferase reporter activity, SD in parentheses
Excerpt: as §1, §2, §3

[5] = tested on: viral vector with Y188L mutant HIV-1 RT; assay: single-round infectivity assay, luciferase reporter, Y188L RT vector; type: cell-based; settings: for EC50: Human immunodeficiency virus 1, HOS cells, reduction of luciferase reporter activity, SD in parentheses
Excerpt: as §1, §2, §3

[6] = tested on: viral vector with L100I mutant HIV-1 RT; assay: single-round infectivity assay, luciferase reporter, L100I RT vector; type: cell-based; settings: Human immunodeficiency virus 1; broader panel, SD in parentheses
Excerpt: as §1, §2, §3

[7] = tested on: viral vector with V106A mutant HIV-1 RT; assay: single-round infectivity assay, luciferase reporter, V106A RT vector; type: cell-based; settings: Human immunodeficiency virus 1; broader panel, SD in parentheses
Excerpt: as §1, §2, §3

[8] = tested on: viral vector with H221Y mutant HIV-1 RT; assay: single-round infectivity assay, luciferase reporter, H221Y RT vector; type: cell-based; settings: Human immunodeficiency virus 1; broader panel, SD in parentheses
Excerpt: as §1, §2, §3

[9] = tested on: viral vector with K103N/Y181C double mutant HIV-1 RT; assay: single-round infectivity assay, luciferase reporter, K103N/Y181C RT vector; type: cell-based; settings: for EC50: Human immunodeficiency virus 1, broader panel, SD in parentheses
Excerpt: as §1, §2, §3

[10] = cytotoxicity assay (ATP-Lite cell viability); type: cell-based, human; settings: human, HOS cells, 48 hours, SD in parentheses
Procedure: (§4) One day prior to treatment, HOS cells were prepared in 96-well plates as described for the infectivity assays, except that 12 wells per plate were treated with cell-free media to serve as negative controls. The following day, serial dilutions of drug stocks were prepared in media from 10 mM stocks in DMSO. Each well received 11 μL of the appropriate drug concentration or DMSO-treated, drug-free media. Final drug concentrations ranged from 0.5 μM to 300 μM. The drug-free wells served as references. Plates were then incubated at 37°C for 48 hours. Cell viability was determined using luciferase reporter ATP-Lite kits (PerkinElmer). As described for the infectivity assays, drug-free reference wells were normalized to 100%, and viabilities at different drug concentrations were determined as a percentage of these references. Data were plotted and analyzed in the same manner as the IC50 data, with the inflection points of the curves reported as CC50.

HOS cells = assay: cytotoxicity assay (ATP-Lite cell viability); type: cell-based, human; settings: for Therapeutic Index (T.I.): ratio of CC50/EC50 (WT)
Procedure: as §4

[11] = HOS cells, reduction of luciferase reporter activity, read-out: EC50 WT
[12] = Human immunodeficiency virus 1, HOS, HOS cells, reduction of luciferase reporter activity, read-out: EC50 WT
[13] = Human immunodeficiency virus 1, broader panel table, read-out: EC50 WT (Table S1)

Row | Compound | EC50 [1, 11] [nM] | EC50 [1, 12] [nM] | EC50 [2] [nM] | EC50 [3] [nM] | EC50 [4] [nM] | EC50 [5] [nM] | EC50 [6] [nM] | EC50 [7] [nM] | EC50 [8] [nM] | EC50 [9] [nM] | fold resistance / loss of potency against K103N/Y181C double mutant ([9]; relative to WT) | CC50 at 48 h [10] [nM] | Therapeutic Index (T.I.) (HOS cells) | EC50 [1, 13] [nM] | loss of potency against E138K [3] | CC50 (HOS cells; HOS cells, 48 hours, SD in parentheses) [nM] | loss of potency against Y188L ([5]; compared with rilpivirine (1))
1 | Cc1cc(/C=C/C#N)cc(C)c1Nc1ccnc(Nc2ccc(C#N)cc2)n1 [Analogue 1, rilpivirine] | 0.2 | 0.4 ± 0.02 | 0.2 | 0.3 | 1.3 | 2.3 ± 0.2 | < 0.1 | 0.1 | 0.4 | 3.1 | ~ 8 fold | 10000 ± 600 | 2.5x10^4 |  |  |  | 
2 | Cc1cc(/C=C/C#N)cc(C)c1Nc1nc(Nc2ccc(C#N)cc2)ncc1[N+](=O)[O-] [Analogue 6] |  |  | 0.2 | 1.4 | 2.1 | 6.8 ± 0.5 | < 0.1 | 0.1 | 0.4 | 27 |  | 24000 | 1.2x10^5 | 0.2 |  |  | 
3 | Cc1cc(/C=C/C#N)cc(C)c1Nc1nc(Nc2ccc(C#N)cc2)ncc1N [Analogue 7] |  |  | 0.3 | 1.3 | 1.1 | 2.3 ± 0.1 | 0.1 | 0.1 | 0.9 | 2.2 |  | 50000 | 2.5x10^5 | 0.2 | four- to fourteen-fold | > 38000 | 
4 | Cc1cc(/C=C/C#N)cc(C)c1Nc1ncc([N+](=O)[O-])c(Nc2ccc(C#N)cc2)n1 [Analogue 8] |  |  | 1 | 4.9 | 5.3 | 13 | 0.2 | 0.3 | 2.6 | 86 |  |  | 1.0x10^5 | 0.9 |  |  | 
5 | COc1ccc(Cn2cnc3c(Nc4c(C)cc(/C=C/C#N)cc4C)nc(Nc4ccc(C#N)cc4)nc32)cc1 [Analogue 10] |  | 1.1 | 1 | 14 | 9.5 | > 100 |  |  |  |  |  | 154000 | 1.4x10^5 |  |  |  | 
6 | Cc1cc(/C=C/C#N)cc(C)c1Nc1nc(Nc2ccc(C#N)cc2)nc2[nH]cnc12 [Analogue 11] |  |  | 0.1 | 2.9 | 0.5 | 13 ± 0.5 | < 0.1 | 0.4 | 0.4 | 1.2 |  |  | 1.2x10^6 | 0.1 | four- to fourteen-fold |  | nearly six-fold
7 | COc1ccc(Cn2cnc3c(Nc4ccc(C#N)cc4)nc(Nc4c(C)cc(/C=C/C#N)cc4C)nc32)cc1 [Analogue 12] |  | 2.7 | 1.9 | 15 | 6.5 | 12 |  |  |  |  |  | 83000 | 3.1x10^4 |  |  |  | 
8 | CC(=O)c1ccc(Nc2nc(Nc3c(C)cc(/C=C/C#N)cc3C)nc3[nH]cnc23)cc1 [Analogue 14] |  | 0.3 | 0.3 | 1.5 | 5.9 | 64 |  |  |  |  |  | 8000 | 2.7x10^4 |  |  |  | 
9 | Cc1cc(/C=C/C#N)cc(C)c1Nc1nc(Nc2ccc(C(F)(F)F)cc2)c2nc[nH]c2n1 [Analogue 15] |  | 1.5 | 0.9 | 4.7 | 3.3 | 17 |  |  |  |  |  | 17000 | 1.1x10^4 |  |  |  | 
10 | COc1ccc(Nc2nc(Nc3c(C)cc(/C=C/C#N)cc3C)nc3[nH]cnc23)cc1 [Analogue 16] | 0.4 | 0.2 | 0.2 | 1.1 | 2.3 | 29 |  |  |  |  |  | 12000 | 6.0x10^4 |  |  |  | 
11 | Cc1cc(/C=C/C#N)cc(C)c1Nc1nc(Nc2ccc(F)cc2)c2nc[nH]c2n1 [Analogue 17] |  | 1.7 | 1.3 | 3.1 | 2 | 15 |  |  |  |  |  | 12000 | 7.1x10^3 |  |  |  | 
12 | Cc1cc(/C=C/C#N)cc(C)c1Nc1nc(Nc2cc(F)cc(F)c2)c2nc[nH]c2n1 [Analogue 18] |  | 9.3 | 4.9 | 28 | 56 | > 100 |  |  |  |  |  | 13000 | 1.4x10^3 |  |  |  | 
13 | Cc1cc(/C=C/C#N)cc(C)c1Nc1nc(Nc2ccccn2)c2nc[nH]c2n1 [Analogue 19] |  | > 100 | > 100 | > 100 | > 100 | > 100 |  |  |  |  |  | 36000 | < 3.6x10^2 |  |  |  | 
14 | Cc1nc2cc(Nc3nc(Nc4c(C)cc(/C=C/C#N)cc4C)nc4[nH]cnc34)ccc2s1 [Analogue 22] |  | 0.6 | 2.2 | 8.3 | 6.1 | > 100 |  |  |  |  |  | 57000 | 9.5x10^4 |  |  |  | 
15 | Cc1cc(/C=C/C#N)cc(C)c1Nc1nc(Nc2ccc3c(c2)CCC3)c2nc[nH]c2n1 [Analogue 23] |  | 0.4 | 1.7 | 7.9 | 4.1 | > 100 |  |  |  |  |  | 30000 | 7.5x10^4 |  |  |  | 
16 | Cc1cc(/C=C/C#N)cc(C)c1Nc1nc(Nc2ccc3c(c2)OCO3)c2nc[nH]c2n1 [Analogue 24] |  | 0.1 | 0.6 | 1.6 | 3 | 23 |  |  |  |  |  | 19000 | 1.9x10^5 |  |  |  | 
17 | Cc1cc(/C=C/C#N)cc(C)c1Nc1nc(Nc2ccc3nn[nH]c3c2)c2nc[nH]c2n1 [Analogue 25] |  | 19 | > 100 | > 100 | > 100 | > 100 |  |  |  |  |  | 100000 | 5.3x10^3 |  |  |  | 
